# US7829560B2, “1,4-disubstituted naphthalenes as inhibitors of P38 MAP kinase” (Arqule, Inc., priority 2004, dated 2010)
# Tests used:
# [1] = system: TNFα release from THP-1 cells; assay: Inhibition of TNFα release from LPS-stimulated THP-1 cells, ELISA; type: cell-based; conditions: Homo sapiens, THP-1, THP-1 cells, read-out: [CELL] THP-1, IC50, TNF ALPHA, ELISA
# Procedure, shortened: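 Human THP-1 monocytes, 10^6 cells/ml in RPMI with 10% FBS, no serum or 1% HSA, preincubated 30 min at 37 °C with compound (≤0.5% DMSO), then stimulated with 10 μg/ml LPS for 18 h. Supernatant TNFα measured by ELISA; IC50 from non-linear dose-response regression.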
# [2] = target: T1, p38α (Homo sapiens, UniProt Q16539); assay: p38 MAP Kinase assay: inhibition of ATF2 phosphorylation, ELISA; type: biochemical; conditions: ATF2 phosphorylation; read-out: [ENZ] P38 ALPHA, IC50, ELISA
# T1 construct: p38 MAP Kinases are recombinant human full-length proteins with an amino-terminal GST fusion; GST (N); purchased Upstate Biotechnology Inc; host or cells: E. coli
# Procedure, shortened: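 GST-tagged full-length human p38 MAP kinase with GST-ATF2 (aa 19–96; 1.25 μM) and 40 μM ATP in HEPES pH 7.5 buffer, without (Method I) or with (Method II) 1% human serum albumin. Compound pre-incubated 15 min at room temperature; reaction 30 min at 37 °C; ATF2 Thr69 phosphorylation measured by ELISA (A450).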
# T1 sequence (Q16539 whole entry, the tested form may be a part): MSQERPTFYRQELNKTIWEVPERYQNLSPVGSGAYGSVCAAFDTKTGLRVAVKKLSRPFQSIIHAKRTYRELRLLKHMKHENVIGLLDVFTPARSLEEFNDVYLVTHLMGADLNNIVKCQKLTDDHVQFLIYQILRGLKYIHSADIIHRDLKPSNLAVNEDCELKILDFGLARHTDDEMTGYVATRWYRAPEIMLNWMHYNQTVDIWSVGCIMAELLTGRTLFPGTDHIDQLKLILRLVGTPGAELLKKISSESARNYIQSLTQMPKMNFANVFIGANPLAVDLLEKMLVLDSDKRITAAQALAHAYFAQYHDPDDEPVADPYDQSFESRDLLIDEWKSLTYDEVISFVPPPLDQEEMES
SMILES,melting point [°C],IC50 [1] [µM],IC50 [2] [µM]
"O=C(Nc1ccc(Oc2ccnc(NCC3OCCO3)n2)c2ccccc12)c1cc(F)cc(N2CCOCC2)c1 [Compound B369, N-[4-({2-[(1,3-dioxolan-2-ylmethyl)amino]pyrimidin-4-yl}oxy)-1-naphthyl]-3-fluoro-5-morpholin-4-ylbenzamide]",122 to 124,0.0333,0.0029
"CC(C)(C)OC(=O)NC1CCN(c2nccc(Oc3ccc(NC(=O)c4cc(F)cc(N5CCCCC5)c4)c4ccccc34)n2)CC1 [Compound B410, tert-Butyl{1-[4-({4-[(3-fluoro-5-piperidin-1-ylbenzoyl)amino]-1-naphthyl}oxy)pyrimidin-2-yl]piperidin-4-yl}carbamate]",211 to 212,> 1,0.0909
"CN(C)C1CCN(c2nccc(Oc3ccc(NC(=O)c4cc(F)cc(N5CCCCC5)c4)c4ccccc34)n2)C1 (stereo not drawn) [Compound B420, N-[4-({2-[3-(Dimethylamino)pyrrolidin-1-yl]pyrimidin-4-yl}oxy)-1-naphthyl]-3-fluoro-5-piperidin-1-ylbenzamide]",108 to 110,0.225,0.0152
"CSc1nccc(Oc2ccc(NC(=O)c3cc(F)cc(N4CCOCC4)c3)c3ccccc23)n1 [Compound B246, 3-Fluoro-N-(4-{[2-(methylthio)pyrimidin-4-yl]oxy}-1-naphthyl)-5-morpholin-4-ylbenzamide]",189 to 190,0.0694,0.0402
"CC(C)(C)Oc1cccc(C(=O)Nc2ccc(OCCN3CCOCC3)c3ccccc23)c1 [Compound B65, 3-tert-Butoxy-N-[4-(2-morpholin-4-yl-ethoxy)-naphthalen-1-yl]-benzamide]",50 to 51,3.42,0.614
"CN1CCN(c2nccc(Oc3ccc(NC(=O)c4cc(F)cc(N5CCOCC5)c4)c4ccccc34)n2)CC1 [Compound B328, 3-Fluoro-N-(4-{[2-(4-methylpiperazin-1-yl)pyrimidin-4-yl]oxy}-1-naphthyl)-5-morpholin-4-ylbenzamide]",195 to 197,0.149,0.0044
"COc1cccc(C(=O)Nc2ccc(OCCN3CCOCC3)c3ccccc23)c1 [Compound B60, 3-Methoxy-N-[4-(2-morpholin-4-ylethoxy)-1-naphthyl]benzamide]",105 to 107,> 10,7.81
"CCn1c(COc2ccc(NC(=O)c3cc(F)cc(N4CCOCC4)c3)c3ccccc23)n[nH]c1=O [Compound B255, N-[4-(4-Ethyl-5-oxo-4,5-dihydro-1H-[1,2,4]triazol-3-ylmethoxy)-naphthalen-1-yl]-3-fluoro-5-morpholin-4-yl-benzamide]",260,1.94,0.578
"CC1CCC(Oc2cc(F)cc(C(=O)Nc3ccc(OCCN4CCOCC4)c4ccccc34)c2)C1 (stereo not drawn) [Compound B227, 3-Fluoro-5-[(3-methylcyclopentyl)oxy]-N-[4-(2-morpholin-4-ylethoxy)-1-naphthyl]benzamide]",65 to 66,4.12,0.808
"O=C(Nc1ccc(OCCN2CCOCC2)c2ccccc12)c1cccc(N2CCCCC2)c1 [Compound B48, N-[4-(2-Morpholin-4-yl-ethoxy)-naphthalen-1-yl]-3-piperidin-1-yl-benzamide]",147 to 148,7.65,0.464
"O=C(Nc1ccc(Oc2ccnc(NC3CCS(=O)(=O)C3)n2)c2ccccc12)c1cc(F)cc(N2CCOCC2)c1 (stereo not drawn) [Compound B347, N-[4-({2-[(1,1-Dioxidotetrahydro-3-thienyl)amino]pyrimidin-4-yl}oxy)-1-naphthyl]-3-fluoro-5-morpholin-4-ylbenzamide]",150 to 151,0.0422,0.0139
"COCC(C)Nc1nccc(Oc2ccc(NC(=O)c3cc(F)cc(N4CCCCC4)c3)c3ccccc23)n1 (stereo not drawn) [Compound B392, 3-Fluoro-N-[4-({2-[(2-methoxy-1-methylethyl)amino]pyrimidin-4-yl}oxy)-1-naphthyl]-5-piperidin-1-ylbenzamide]",94 to 95,0.122,0.0071
"O=C(Nc1ccc(OCCN2CCOCC2)c2ccccc12)c1cc(F)cc(N2CCCCC2)c1 [Compound B66, 3-Fluoro-N-[4-(2-morpholin-4-ylethoxy)-1-naphthyl]-5-piperidin-1-ylbenzamide]",150 to 151,6.05,0.112
"O=C(Nc1ccc(OCCN2CCOCC2)c2ccccc12)c1cc(F)cc(OC2CCCC2)c1 [Compound B225, 3-(Cyclopentyloxy)-5-fluoro-N-[4-(2-morpholin-4-ylethoxy)-1-naphthyl]benzamide]",117 to 119,4.09,0.439
"O=C(Nc1ccc(Oc2ccnc(N3CCC4(CC3)OCCO4)n2)c2ccccc12)c1cc(F)cc(N2CCOCC2)c1 [Compound B320, N-(4-{[2-(1,4-Dioxa-8-azaspiro[4.5]dec-8-yl)pyrimidin-4-yl]oxy}-1-naphthyl)-3-fluoro-5-morpholin-4-ylbenzamide]",115 to 117,0.19,0.0071
"O=C(Nc1ccc(OCCCc2cccnc2)c2ccccc12)c1cc(F)cc(N2CCOCC2)c1 [Compound B222, 3-Fluoro-5-morpholin-4-yl-N-[4-(3-pyridin-3-ylpropoxy)-1-naphthyl]benzamide]",64 to 66,9.38,0.82
"COCCN(C)c1nccc(Oc2ccc(NC(=O)c3cc(F)cc(N4CCOCC4)c3)c3ccccc23)n1 [Compound B370, 3-Fluoro-N-[4-({2-[(2-methoxyethyl)(methyl)amino]pyrimidin-4-yl}oxy)-1-naphthyl]-5-morpholin-4-ylbenzamide]",96 to 98,0.33,0.0211
"COc1nccc(Oc2ccc(NC(=O)c3cc(F)cc(N4CCOCC4)c3)c3ccccc23)n1 [Compound B267, 3-Fluoro-N-{4-[(2-methoxypyrimidin-4-yl)oxy]-1-naphthyl}-5-morpholin-4-ylbenzamide]",216 to 217,0.0292,0.0569
"CCOC(=O)N1CCC(Nc2nccc(Oc3ccc(NC(=O)c4cc(F)cc(N5CCOCC5)c4)c4ccccc34)n2)CC1 [Compound B341, Ethyl-4-{[4-({4-[(3-fluoro-5-morpholin-4-ylbenzoyl)amino]-1-naphthyl}oxy)pyrimidin-2-yl]amino}piperidine-1-carboxylate]",122 to 124,0.59,0.0105
"O=C(Nc1ccc(Oc2ccnc(N3CCOCC3)n2)c2ccccc12)c1cc(F)cc(N2CCOCC2)c1 [Compound B248, 3-Fluoro-5-morpholin-4-yl-N-{4-[(2-morpholin-4-ylpyrimidin-4-yl)oxy]-1-naphthyl}benzamide]",104 to 106,0.157,0.0466
"CC(C)CN(C)c1cc(F)cc(C(=O)Nc2ccc(OCCN3CCOCC3)c3ccccc23)c1 [Compound B210, 3-Fluoro-5-[isobutyl(methyl)amino]-N-[4-(2-morpholin-4-ylethoxy)-1-naphthyl]benzamide]",126 to 128,> 10,1.3
O=C(Nc1ccc(OCCc2cccnc2)c2ccccc12)c1cc(F)cc(N2CCOCC2)c1 [Compound B190],80 to 82,7.52,0.826
"CC1CCCN1c1cc(F)cc(C(=O)Nc2ccc(OCCN3CCOCC3)c3ccccc23)c1 (stereo not drawn) [Compound B208, 3-Fluoro-5-(2-methylpyrrolidin-1-yl)-N-[4-(2-morpholin-4-ylethoxy)-1-naphthyl]benzamide]",108 to 111,3.64,0.167
"O=C(Nc1ccc(Oc2ccnc(-n3ccnc3)n2)c2ccccc12)c1cc(F)cc(N2CCOCC2)c1 [Compound B325, 3-Fluoro-N-(4-{[2-(1H-imidazol-1-yl)pyrimidin-4-yl]oxy}-1-naphthyl)-5-morpholin-4-ylbenzamide]",153 to 154,0.247,0.0344
"O=C(Nc1ccc(Oc2ccnc(NCCN3CCCC3)n2)c2ccccc12)c1cc(F)cc(N2CCOCC2)c1 [Compound B338, 3-Fluoro-5-morpholin-4-yl-N-[4-({2-[(2-pyrrolidin-1-ylethyl)amino]pyrimidin-4-yl}oxy)-1-naphthyl]benzamide]",95 to 97,0.0609,0.0171
"N#Cc1ccc(C(=O)Nc2ccc(OCCN3CCOCC3)c3ccccc23)cc1 [Compound B36, 4-Cyano-N-[4-(2-morpholin-4-ylethoxy)-1-naphthyl]benzamide]",213 to 214,6.62,5.09
"O=C(Nc1ccc(Oc2ccnc(NCCO)n2)c2ccccc12)c1cc(F)cc(N2CCOCC2)c1 [Compound B252, 3-Fluoro-N-[4-({2-[(2-hydroxyethyl)amino]pyrimidin-4-yl}oxy)-1-naphthyl]-5-morpholin-4-ylbenzamide]",127 to 129,0.0308,0.0319
